Assay results from patent US11744273B2, “Sweetness enhancing volatile compositions and methods of increasing perceived sweetness of a comestible” (University of Florida Research Foundation, Inc., priority 2016, dated 2023).

Columns and labels:
Type in all cases: in vivo, human
sweetness [1] = assay: Blueberry sensory panels; PLS analysis, sweetness (Table 7); details: multivariate regression analysis
Experimental: Sensory analysis was conducted similar to described above for tomatoes and strawberries in Examples 1 and 3. […] Panelists were trained with the scaling methods and were encouraged to return for the remainder of the study. Panelists rated overall liking, texture liking, sweetness, sourness, and flavor intensity using hedonic general Labeled Magnitude Scales (gLMS) (−100 to +100; −100=greatest disliking of any kind, +100=greatest liking of any kind) and intensity gLMS (0 to +100; 0=no sensation, 100=most intense sensation of any kind), which allow for improved comparison between panelists and between years (see Bartoshuk, L. M., et al., 2004 and Bartoshuk, L. M., et al., 2005). Panelists were also asked to rate the intensity of taste and flavor sensations of a hypothetical ideal blueberry on this scale. Each panelist received two to four berries of five to six genotypes in a single panel in a Williams design, which was generated by Compusense 5.6 (Compusense Inc., Guelph, Ontario, Canada). They were asked to eat the blueberries of each genotype at once, and to take a bite of cracker and sip of water in between samples. Ratings were recorded using Compusense software.
(§1) Soluble solids content (SSC), titratable acidity (TA), and volatiles were quantified as described above for tomato and strawberries. The volatiles were collected for two hours via dynamic headspace with HaySep Q 80-100 porous polymer adsorbent (Valco Instruments Company Inc., Houston, Tex.) and eluted with methylene chloride and nonyl acetate as an elution standard. Elutions were run on an Agilent 7890A Gas Chromatograph Flame Ionization Detector (GC-FID) DB-5 column (30 m length×250 mm diameter×1 mm film) for quantification and on an Agilent 7890A Gas Chromatograph coupled to an Agilent 5977A Mass Selective Detector (GC/MSD) for qualification (Agilent, Santa Clara, Calif.). Integrated peak area of each signal was normalized for elution, fitted to relative pure chemical response, corrected for sample mass, and expressed as nanograms per gram fresh weight per hour (ng gFW-1 h-1). Response fitting was calculated using the response factor of pure chemical standards (Sigma-Aldrich, St. Louis, Mo.) run on the same instrument.
(§2) Pair-wise correlations and significance between sensory measurements and primary bio-chemical components were calculated, with panelist as a random effect. Least Square Means (LSMeans) of the sensory data for each sample were obtained to account of the random effect of panelist. A partial least squares (PLS) analysis was constructed in JMP1 Pro 10 (SAS Institute Inc., Cary, N.C.) to reveal effectors of sensory ratings (see, e.g., Togari N., et al., 1995; Hough, G., et al., 1996; deKermadec, F., et al., 1997; Toscas, P. J., et al., 1999; and Tenenhaus, M., et al., 2005). The response variables (Y) considered corresponded to LSMeans of overall liking, sweetness, sourness, and blueberry flavor intensity. Glucose, fructose, sucrose, TA, pH, and 52 volatile compounds were considered as explanatory variables (X). The inclusion of texture liking was evaluated independently given that no explanatory physical measure was made for sample texture. […] The model was created without texture for analysis.
• Top six and bottom six biochemical measures explaining sensory responses as determined by partial least squares (PLS) analysis. […]

sweetness [2] = assay: Blueberry sensory panels; multiple regression of volatiles against sweetness independent of fructose, glucose and/or sucrose (Table 8); details: for t Ratio (Fructose): contribution to sweetness independent of fructose; for t Ratio (Glucose): contribution to sweetness independent of glucose; for t Ratio (Sucrose): contribution to sweetness independent of sucrose
Source text: Panelists were trained with the scaling methods and were encouraged to return for the remainder of the study. […] Panelists were also asked to rate the intensity of taste and flavor sensations of a hypothetical ideal blueberry on this scale. Each panelist received two to four berries of five to six genotypes in a single panel in a Williams design, which was generated by Compusense 5.6 (Compusense Inc., Guelph, Ontario, Canada). They were asked to eat the blueberries of each genotype at once, and to take a bite of cracker and sip of water in between samples. Ratings were recorded using Compusense software.
as §1, with “Elutions were run on an Agilent 7890A Gas Chromatograph Flame Ionization Detector (GC-FID) DB-5 column (30 m length×250 mm diameter×1 mm film) for quantification and on an Agilent 7890A Gas Chromatograph coupled to an Agilent 5977A Mass Selective Detector (GC/MSD) for qualification (Agilent, Santa Clara, Calif.).” left out
as §2, with “A partial least squares (PLS) analysis was constructed in JMP1 Pro 10 (SAS Institute Inc., Cary, N.C.) to reveal effectors of sensory ratings (see, e.g., Togari N., et al., 1995; Hough, G., et al., 1996; deKermadec, F., et al., 1997; Toscas, P. J., et al., 1999; and Tenenhaus, M., et al., 2005).” left out

sweetness [3] = assay: Orange juice; partial least squares regression of volatiles against sweetness independent of total sugar (Table 9)
Experimental: Volatile content of orange juice was assessed and analyzed similar to as described above for tomato, strawberry, and blueberry, described above. The process for obtaining volatile samples from orange juice was slightly different than for tomatoes, strawberries and blueberries. […] Briefly, instead of collecting volatiles at room temperature from a fruit mash in headspace of a closed area, the volatiles were elicited by heating the juice to collect volatiles.

perceived sweetness [4] = assay: Tomato taste panel; revised partial least squares regression against sweetness independent of fructose or glucose (Table 4); details: for FRUCTOSE t RATIO: sweetness independent of fructose; for GLUCOSE t RATIO: sweetness independent of glucose
Experimental: (§3) Fully ripe fruit were harvested, and used for taste panels. A random subset of fruit was used for biochemical analysis. Three biological replicates, each consisting of 2-20 fruit (depending on fruit size), were assayed for each variety. […] Panelists were between the ages of 18 and 78 with a median age of 22. […] An average of 85 (range of 66-95) of these panelists evaluated between 4-6 varieties in a session. All panelists went through a training session to familiarize them with the scaling and procedures. Tomatoes were sliced into wedges (or in halves for grape/cherry types) and each panelist was given two pieces for evaluation. Panelists took a bite of each sample, chewed and swallowed it, and rated overall liking and liking for texture. They then rated the perceived intensities of sweetness, sourness, saltiness, umami sensation, bitterness and overall tomato flavor. They were free to take as many bites as necessary to complete the assessments. They were instructed to take a bite of an unsalted cracker and a sip of water between samples. Samples were presented to the panelists in a randomized order. Hedonic ratings used the hedonic gLMS. This scale assesses the liking for tomatoes in the context of all pleasure/displeasure experiences: 0=neutral, −100=strongest disliking of any kind experienced, and +100=strongest liking of any kind experienced. Sensory intensity ratings used the gLMS (7,8,19). This scale assesses taste and flavor sensations in the context of all sensory experience (7): 0=no sensation, 100=strongest sensation of any kind experienced. Both scales were devised to provide valid comparisons across subjects.
Biochemical and psychophysical data sets from fruit and fruit taste panels are mathematically probed for relationships using standard least squares and partial least squares regression modeling techniques (SAS JMP Pro 12.0.1 and R version 3.2.4 statistical software packages). The exact regression type is dependent on the structure of the data, i.e. depending on the size and distributions of the overall datasets.

perceived sweetness [5] = assay: Tomato taste panel; initial multiple regression of volatiles against perceived sweetness (Table 3); details: tomato volatiles; multiple regression, contribution to sweetness independent of the measures of sugar
Experimental: as §3
(§4) The 68 chemical compounds measured in this experiment were initially divided into six groups based upon biochemical properties: sugars, branched chain amino acids, lipids, carotenoids, phenolics, and acids. A small number of compounds for which biosynthetic pathways are not established were assigned to one of the six classes based upon their correlations with other classified compounds. All pairwise correlations among the set of 68 compounds were calculated. Correlation coefficients were sorted using Modulated Modularity Clustering (MMC) (9) as a visual aid for identifying compounds that are closely related in this sample. Biochemical groups were examined for compounds within the group that were highly correlated and compounds that were upstream in the relevant metabolic pathways were preferentially selected.
(§5) All analyses were performed in SAS v 9.2.
In conducting the multiple regression analysis on the tomato data set, the independent variables were the sugar content (glucose+fructose), and the flavor (indicated by the retronasal perception of volatiles), while the dependent variable was the perceived sweetness.

flavor intensity = assay: Tomato taste panel; association of compounds with tomato flavor intensity; details: univariate models
Experimental: as §3, §4, §5
Due to the large number of chemicals potentially influencing liking, a multivariate analysis of the data was performed. The attributes were initially partitioned into six groups based upon chemical properties and biosynthetic pathways: sugars, branched chain amino acids, fatty acids, carotenoids, phenolics, and acids. […] Groups of structurally related chemicals with known metabolic links were examined for compounds within each module that were highly colinear and compounds that were upstream in relevant metabolic pathways were preferentially selected.

`CCCCCC(C)=O` [2-Heptanone] was tested, and the “independent enhancement of perception of sweetness” value (sweetness [1]) was “independently enhancing perception of sweetness”.

For `C=CC1(C)CCC(C(C)(C)O)O1` (stereo not drawn) [(Z)-linalool oxide (furanoid)], the “t Ratio (Fructose)” value (sweetness [2]) was 1.154, the “t Ratio (Glucose)” value (sweetness [2]) was 1.356 and the “t Ratio (Sucrose)” value (sweetness [2]) was 1.079.

For `C=C1CC[C@H]2O[C@]2(C)CC[C@@H]2[C@@H]1CC2(C)C` [(—)-Caryophyllene oxide], the “t Ratio (Fructose)” value (sweetness [2]) was 1.845, the “t Ratio (Glucose)” value (sweetness [2]) was 1.608 and the “t Ratio (Sucrose)” value (sweetness [2]) was “.982”.

With `C=C(C)[C@H]1CC=C(C)CC1` [D-Limonene] the “t Ratio (Fructose)” value (sweetness [2]) was 1.176, the “t Ratio (Glucose)” value (sweetness [2]) was “.954” and the “t Ratio (Sucrose)” value (sweetness [2]) was “.609”.

In the case of `C[Si](C)(C)CCOC(=O)CC(=O)OCC[Si](C)(C)C` [Malonic acid, bis(2-trimethylsilylethyl ester], the “Total Sugar t Ratio” value (sweetness [3]) is reported as 3.148.

`C[Si](C)(O)O` [Silanediol, dimethyl-] was tested, and the “Total Sugar t Ratio” value (sweetness [3]) was 1.781.

`CC1=C(C=O)C(C)(C)CCC1` [beta-cyclocitral] was tested, and the “FRUCTOSE t RATIO” value (perceived sweetness [4]) was 1.905, the “GLUCOSE t RATIO” value (perceived sweetness [4]) was 1.688 and the t (perceived sweetness [5]) was 1.186.

In the case of `CC1=CC[C@H]2[C@H]3[C@@H]1[C@]2(C)CC[C@H]3C(C)C` [copaene], the “Total Sugar t Ratio” value (sweetness [3]) is reported as 2.06.

In the case of `N[C@@H](CCC(=O)O)C(=O)O` [glutamatic acid], the “FRUCTOSE t RATIO” value (perceived sweetness [4]) is reported as −1.746 and the “GLUCOSE t RATIO” value (perceived sweetness [4]) is reported as −2.953.

With `CC(C)=CCC/C(C)=C\C=O` [neral] the “independent enhancement of perception of sweetness” value (sweetness [1]) was “independently enhancing perception of sweetness”.

`C=C(C)[C@@H]1CCC2=CCC[C@@H](C)[C@]2(C)C1` [valencene] was tested, and the “Total Sugar t Ratio” value (sweetness [3]) was 2.206.

In the case of `CC(=O)/C=C/C1C(C)=CCCC1(C)C` (stereo not drawn) [α-ionone], the “Total Sugar t Ratio” value (sweetness [3]) is reported as 2.042.

For `CC1=CCCC2(C)CCC3C(C)(C)CC132` (stereo not drawn) [α-panasinsen], the “Total Sugar t Ratio” value (sweetness [3]) was 2.909.

In the case of `C=C(C)[C@@H]1CC[C@@]2(C)CCC=C(C)[C@@H]2C1` [α-selinene], the “Total Sugar t Ratio” value (sweetness [3]) is reported as 2.428.

`CC1=CC[C@H]2C(C)=CC[C@@H](C(C)C)[C@@H]2C1` [β-cadinene] was tested, and the “Total Sugar t Ratio” value (sweetness [3]) was 2.69.

`C/C=C/C(=O)C1=C(C)C=CCC1(C)C` [β-damascenone] was tested, and the “FRUCTOSE t RATIO” value (perceived sweetness [4]) was 0.138, the “GLUCOSE t RATIO” value (perceived sweetness [4]) was 0.678 and the t (perceived sweetness [5]) was 1.012. The “association with flavor intensity” value (flavor intensity) was “not associated with tomato flavor intensity”.

`CC(=O)/C=C/C1=C(C)CCCC1(C)C` [β-ionone] was tested, and the “FRUCTOSE t RATIO” value (perceived sweetness [4]) was 2.12, the “GLUCOSE t RATIO” value (perceived sweetness [4]) was 1.748 and the “Total Sugar t Ratio” value (sweetness [3]) was 1.28. It also gave a t (perceived sweetness [5]) of 1.135.

With `C=C1CCCC2(C)CCC(=C(C)C)CC12` (stereo not drawn) [γ-Selinene] the “Total Sugar t Ratio” value (sweetness [3]) was 4.272.

`C=C(C)C1=C[C@]2(C)C(=CC1)CCC[C@H]2C` [γ-vetivenene] was tested, and the “Total Sugar t Ratio” value (sweetness [3]) was 2.469.

b-caryophyllene/aromadendrene was tested, and the “Total Sugar t Ratio” value (sweetness [3]) was 1.565.

For neryl propanoate/Geranyl isobutanoate, the “Total Sugar t Ratio” value (sweetness [3]) was 2.298.
